{"source": "patent US11896594B2", "about": "“Palatable antiparasitic formulations” (Zoetis Services LLC, priority 2018, dated 2024)", "test_system": "D. immitis", "assay": "Prevention of heartworm disease in dogs", "type": "in vivo", "conditions": "in vivo, po", "note": "“And” between values parts separate entries of the source, which are not always exact repeats. Equal values may be shown once."}
{"smiles": "CO/N=C1\\C[C@]2(C[C@@H]3C[C@@H](C/C=C(\\C)C[C@@H](C)/C=C/C=C4\\CO[C@@H]5[C@H](O)C(C)=C[C@@H](C(=O)O3)[C@]45O)O2)O[C@H](/C(C)=C/C(C)C)[C@H]1C", "note": "[moxidectin]", "values": [{"measurement": "rate of efficacy against ML-resistant D. immitis isolate", "result": "98.8% and 99.5%"}]}
